Source: the CheMixHub ionic liquid set
± gives the uncertainty stated by the source.

Test: xn = mol fraction of the nth substance listed

C[C@H](N)C(=O)[O-].C[N+](C)(C)CCO + CCCO
100 kPa
Conditions	viscosity [mPa·s]
287.96 K, x1 = 0.0997	7.8 ± 1.9
287.99 K, x1 = 0.2007	22.8 ± 5.5
288.02 K, x1 = 0.3915	119 ± 29
288.03 K, x1 = 0.6939	910 ± 220
288.04 K, x1 = 0.6047	540 ± 130
288.05 K, x1 = 0.7915	1505 ± 380
288.06 K, x1 = 0.506	267 ± 66
288.07 K, x1 = 0.9049	2669 ± 680
288.08 K, x1 = 0.2998	53 ± 13
288.1 K, x1 = 1	5100 ± 1300
289.23 K, x1 = 0.0997	7.7 ± 1.8
289.24 K, x1 = 0.2007	22.2 ± 5.3
289.26 K, x1 = 0.3915	114 ± 27
289.28 K, x1 = 0.6939	850 ± 210
289.29 K, x1 = 0.6047	510 ± 120
289.3 K, x1 = 0.7915	1387 ± 340
289.31 K, x1 = 0.506	251 ± 61
289.31 K, x1 = 0.9049	2464 ± 620
289.32 K, x1 = 0.2998	51 ± 12
289.96 K, x1 = 1	3700 ± 1000
290.21 K, x1 = 1	4300 ± 1200
290.49 K, x1 = 0.0997	7.5 ± 1.8
290.5 K, x1 = 0.2007	21.3 ± 5.1
290.51 K, x1 = 0.3915	107 ± 26
290.52 K, x1 = 0.6047	470 ± 110
290.52 K, x1 = 0.6939	770 ± 190
290.53 K, x1 = 0.506	231 ± 56
290.53 K, x1 = 0.7915	1251 ± 310
290.53 K, x1 = 0.9049	2210 ± 560
290.54 K, x1 = 0.2998	49 ± 12
291.71 K, x1 = 0.0997	7.2 ± 1.7
291.72 K, x1 = 0.2007	20.4 ± 4.9
291.72 K, x1 = 0.3915	99 ± 24
291.73 K, x1 = 0.2998	46 ± 11
291.73 K, x1 = 0.506	214 ± 52
291.73 K, x1 = 0.6047	430 ± 100
291.73 K, x1 = 0.6939	700 ± 170
291.73 K, x1 = 0.7915	1121 ± 280
291.73 K, x1 = 0.9049	1968 ± 490
292.02 K, x1 = 1	3052 ± 830
292.32 K, x1 = 1	3520 ± 940
292.9 K, x1 = 0.0997	6.9 ± 1.7
292.91 K, x1 = 0.2007	19.6 ± 4.7
292.91 K, x1 = 0.2998	43 ± 10
292.91 K, x1 = 0.3915	93 ± 22
292.91 K, x1 = 0.6047	391 ± 95
292.92 K, x1 = 0.506	199 ± 48
292.92 K, x1 = 0.6939	640 ± 160
292.92 K, x1 = 0.7915	1017 ± 250
292.92 K, x1 = 0.9049	1771 ± 440
294.08 K, x1 = 1	2544 ± 670
294.09 K, x1 = 0.0997	6.7 ± 1.6
294.09 K, x1 = 0.2007	18.8 ± 4.5
294.09 K, x1 = 0.2998	41 ± 9.8
294.09 K, x1 = 0.3915	86 ± 21
294.09 K, x1 = 0.506	185 ± 45
294.09 K, x1 = 0.6047	358 ± 87
294.09 K, x1 = 0.9049	1589 ± 400
294.1 K, x1 = 0.6939	580 ± 140
294.1 K, x1 = 0.7915	920 ± 230
294.41 K, x1 = 1	2896 ± 760
295.27 K, x1 = 0.0997	6.5 ± 1.6
295.27 K, x1 = 0.2007	18 ± 4.3
295.27 K, x1 = 0.2998	38.9 ± 9.4
295.27 K, x1 = 0.3915	81 ± 20
295.27 K, x1 = 0.506	172 ± 42
295.27 K, x1 = 0.6047	329 ± 80
295.27 K, x1 = 0.6939	530 ± 130
295.27 K, x1 = 0.7915	840 ± 210
295.27 K, x1 = 0.9049	1438 ± 360
296.14 K, x1 = 1	2140 ± 560
296.45 K, x1 = 0.0997	6.3 ± 1.5
296.45 K, x1 = 0.2007	17.3 ± 4.2
296.45 K, x1 = 0.2998	36.9 ± 8.9
296.45 K, x1 = 0.3915	76 ± 18
296.45 K, x1 = 0.506	160 ± 39
296.45 K, x1 = 0.6047	302 ± 73
296.45 K, x1 = 0.6939	490 ± 120
296.45 K, x1 = 0.7915	760 ± 190
296.45 K, x1 = 0.9049	1298 ± 320
296.48 K, x1 = 1	2402 ± 620
297.63 K, x1 = 0.0997	6.1 ± 1.5
297.63 K, x1 = 0.2007	16.6 ± 4
297.63 K, x1 = 0.2998	35 ± 8.4
297.63 K, x1 = 0.3915	71 ± 17
297.63 K, x1 = 0.506	149 ± 36
297.63 K, x1 = 0.6047	278 ± 67
297.63 K, x1 = 0.6939	450 ± 110
297.63 K, x1 = 0.7915	700 ± 170
297.63 K, x1 = 0.9049	1174 ± 290
298.2 K, x1 = 1	1806 ± 460
298.54 K, x1 = 1	2000 ± 510
298.8 K, x1 = 0.0997	6 ± 1.4
298.8 K, x1 = 0.2007	16 ± 3.8
298.8 K, x1 = 0.2998	33.4 ± 8
298.8 K, x1 = 0.3915	67 ± 16
298.8 K, x1 = 0.6047	257 ± 62
298.81 K, x1 = 0.506	140 ± 34
298.81 K, x1 = 0.6939	410 ± 100
298.81 K, x1 = 0.7915	640 ± 160

Cn1cc[n+](CCC(=O)O)c1.[Cl-] + O
viscosity [mPa·s], 100 kPa
Conditions	x1 = 0.0009214	x1 = 0.001799	x1 = 0.003593	x1 = 0.005399	x1 = 0.00717	x1 = 0.008993
293.15 K	1.006 ± 0.012	1.022 ± 0.012	1.056 ± 0.012	1.092 ± 0.013	1.128 ± 0.013	1.167 ± 0.014
298.15 K	0.893 ± 0.01	0.907 ± 0.011	0.937 ± 0.011	0.966 ± 0.011	0.995 ± 0.012	1.03 ± 0.012
303.15 K	0.802 ± 0.009	0.814 ± 0.01	0.839 ± 0.01	0.865 ± 0.01	0.89 ± 0.011	0.922 ± 0.011
308.15 K	0.726 ± 0.009	0.735 ± 0.009	0.759 ± 0.009	0.783 ± 0.009	0.807 ± 0.01	0.831 ± 0.01
313.15 K	0.658 ± 0.008	0.668 ± 0.008	0.689 ± 0.008	0.711 ± 0.008	0.73 ± 0.009	0.75 ± 0.009

CCCCn1cc[n+](CCOCCOCC[n+]2ccn(CCCC)c2)c1.O=S(=O)([N-]S(=O)(=O)C(F)(F)F)C(F)(F)F.O=S(=O)([N-]S(=O)(=O)C(F)(F)F)C(F)(F)F + CC[n+]1ccn(C)c1.N#C[N-]C#N + O=S(=O)([N-]S(=O)(=O)C(F)(F)F)C(F)(F)F.[Li+]
100 kPa, x1 = 0.1442, x2 = 0.7526
Conditions	electrical conductivity [S/m]
298 K	0.677 ± 0.027
303 K	0.795 ± 0.032
313 K	1.05 ± 0.042
323 K	1.39 ± 0.056
333 K	1.71 ± 0.069
343 K	2.08 ± 0.083

CCCO + CC[n+]1ccn(C)c1.COS(=O)(=O)[O-]
101 kPa, x2 = 0
Conditions	viscosity [mPa·s]
283.15 K	2.78 ± 0.07
293.15 K	2.18 ± 0.07
313.15 K	1.36 ± 0.07
323.15 K	1.11 ± 0.07

CCCC[N+](C)(CCCC)CCCC.[Cl-] + NC(N)=NCCC[C@H](N)C(=O)O + O
313.15 K, 101.3 kPa
Conditions	viscosity [mPa·s]
x2 = 0, x1 = 0.0007203	0.67 ± 0.1
x2 = 0, x1 = 0.00144	0.7 ± 0.1

CCCC[n+]1ccn(C)c1.N#C[N-]C#N + F[P-](F)(F)(F)(F)F.[Li+]
101 kPa, x1 = 1
Conditions	electrical conductivity [S/m]
288.15 K	0.596 ± 0.06
298.15 K	0.925 ± 0.093
333.15 K	2.77 ± 0.28
